The values below are quoted from earlier work in patent US20120264119A1, “NEW METHOD FOR DECONTAMINATION AND PROCESSING OF CLINICAL SPECIMENS FROM A PATIENT” (priority 2011, published 2012).

The subject of this data set is Mycobacteria. To be noted: sputum processing with sodium hydroxide alone or with N-acetyl-cysteine.

The structures appear in SMILES notation.

As for `[Na+].[OH-]` [NaOH, sodium hydroxide], the viable mycobacteria destroyed result is “more than 80%”.
